According to PubChem BioAssay AID1845209 (Molecular Pharmacology Branch, DTP, NCI, 2023):

System: NCI-H211 tumor spheroids, viability percent test/control
Test: Anticancer human tumor NCI-H211 cell line growth inhibition;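 note: spheroids exposed to agents for seven days before readout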
Settings: spheroids with HUVEC and MSC; for IC50: curve of first compound; for viability, T/C: stronger effect = lower value
Excerpt: Multicellular complex tumor spheroid response to DNA repair inhibitors in combination with DNA-damaging drugs
This study explores the anticancer activities of DNA-damaging drugs and inhibitors of DNA damage repair, both as single agents and in combinations. Complex tumor spheroids comprised of malignant cells, endothelial cells and mesenchymal stem cells served as an in vitro model for human solid tumors. This model system incorporates physiologically relevant features and patient-derived or established malignant cell lines with clinically relevant genetic alterations from many tumor types. Twenty-six patient-derived or established malignant cell lines were evaluated representing sarcoma, melanoma, small cell lung cancer (SCLC), non-small cell lung cancer (NSCLC), as well as bladder, ovarian and pancreatic cancers. The concentration ranges selected for each drug and investigational agent were based upon clinically achievable concentrations if the clinical Cmax of the agent was known.
Compounds. The drugs and compounds olaparib (NSC753686), talazoparib (NSC767125), berzosertib (NSC777718), elimusertib (NSC800525), nedisertib (NSC802822), VX-984 (NSC792969), AZD-1390 (NSC803789), temozolomide (NSC362856), topotecan (NSC609699), trabectedin (NSC813783), staurosporine (NSC755774), and gemcitabine (NSC613327) were obtained from the National Cancer Institute (NCI) Developmental Therapeutics Program Chemical Repository. The FDA-approved anticancer drug set is available from the Developmental Therapeutics Program at https://dtp.cancer.gov/organization/dscb/obtaining/available_plates.htm. […] The stock solutions were prepared in dimethyl sulfoxide (DMSO, Sigma-Aldrich, St. Louis, MO, cat. D2650) at 400-fold the tested concentration and stored at -70 degrees C. Prior to their use, the stock solutions were diluted in fresh medium and the final DMSO concentration in the assay was 0.25% (v/v). All drugs and investigational agents were tested over a range starting from a high concentration at or near the clinical Cmax and decreasing in half-log increments. If the clinical Cmax for an agent had not been determined, the highest concentration tested was 10 microM.
Cell Lines. The patient-derived cancer cell (PDC) lines: 156681-154-R-J1-PDC, 283228-195-R-J1-PDC, 287954-098-R-J1-PDC, 292921-168-R-J2-PDC, 349418-098-R-PDC, 425362-245-T-J1-PDC, 556581-035-R-J1-PDC, and BL0293-F563-PDC were received from the NCI Patient-Derived Models Repository (PDMR, https://pdmr.cancer.gov). The established cell lines HS-SY-2 (RRID:CVCL_8719), MPNST, and SYO-1 (RRID:CVCL_7146) were obtained from the Sloan Kettering Institute. The alveolar soft parts sarcoma cell line ASPS-1 (RRID:CVCL_S738) was established at the NCI and grown from internal seed stocks. The following established cell lines were purchased from the American Type Culture Collection (ATCC, Manassas, VA): G-401 (ATCC, cat. CRL-1441, RRID:CVCL_0270), SW982 (ATCC, cat. HTB-93, RRID:CVCL_1734), VA-ES-BJ (ATCC, cat. CRL-2138, RRID:CVCL_1785), NCI-H719 (ATCC, cat. CRL-5837, RRID:CVCL_1582), NCI-H196 (ATCC, cat. CRL-5823, RRID:CVCL_1509), NCI-H841 (ATCC, cat. CRL-5845, RRID:CVCL_1595), NCI-H1618 (ATCC, cat. CRL-5879, RRID:CVCL_1480), NCI-H1876 (ATCC, cat. CRL-5902, RRID:CVCL_1503), DMS 114 (ATCC, cat. CRL-2066; RRID:CVCL_1174), NCI-H211 (ATCC, cat. CRL-5824; RRID:CVCL_1529), and SW 1271 (ATCC, cat. CRL-2177, RRID:CVCL_1716). The small cell lung cancer cell line COR-L88 was purchased from Sigma-Aldrich (cat. 92031917-1VL, RRID:CVCL_1141). The non-small cell lung cancer cell lines NCI-H226 (RRID:CVCL_1544) and NCI-H322M (RRID:CVCL_1557) were established at the NCI and grown from internal seed stocks. Pooled donor human umbilical vein endothelial cells (HUVEC, Lonza, cat. CC-2519) and human mesenchymal stem cells (hMSC, Lonza, cat. PT-2501) were purchased from Lonza (Walkersville, MD).
Cell Culture. All cells were maintained in an incubator at 37 degrees C and 5% CO2 with 95% humidity. […]

With `O=C(c1cc(Cc2n[nH]c(=O)c3ccccc23)ccc1F)N1CCN(C(=O)C2CC2)CC1` + COc1cc2c(cc1O)CCNC21CSC2c3c(OC(C)=O)c(C)c4c(c3C(COC1=O)N1C(O)C3Cc5cc(C)c(OC)c(O)c5C(C21)N3C)OCO4 the IC50 (second compound 30 pM) was 0.0952 µM, the IC50 (second compound 94.9 pM) was < 0.0949 µM and the IC50 (second compound 0.0003 µM) was < 0.0949 µM. For the same compound, the IC50 (second compound 0.000949 µM) was < 0.0949 µM, the IC50 (second compound 0.003 µM) was < 0.0949 µM and the viability, T/C (second compound 30 pM, first compound 0.0949 µM) was 50.5%. It also gave a viability, T/C (second compound 30 pM, first compound 0.3 µM) of 16.1%, a viability, T/C (second compound 30 pM, first compound 0.949 µM) of 1.62% and a viability, T/C (second compound 30 pM, first compound 3 µM) of 0.78%. For the same compound, the viability, T/C (second compound 30 pM, first compound 9.49 µM) was 0.73%, the viability, T/C (second compound 30 pM, first compound 30 µM) was 0.73% and the viability, T/C (second compound 94.9 pM, first compound 0.0949 µM) was 2.31%. It also gave a viability, T/C (second compound 94.9 pM, first compound 0.3 µM) of 1.2%, a viability, T/C (second compound 94.9 pM, first compound 0.949 µM) of 0.86% and a viability, T/C (second compound 94.9 pM, first compound 3 µM) of 0.78%. For the same compound, the viability, T/C (second compound 94.9 pM, first compound 9.49 µM) was 0.78%, the viability, T/C (second compound 94.9 pM, first compound 30 µM) was 0.95% and the viability, T/C (second compound 0.0003 µM, first compound 0.0949 µM) was 1.39%. For the same compound, the viability, T/C (second compound 0.0003 µM, first compound 0.3 µM) was 0.85%, the viability, T/C (second compound 0.0003 µM, first compound 0.949 µM) was 0.91% and the viability, T/C (second compound 0.0003 µM, first compound 3 µM) was 0.8%. It also gave a viability, T/C (second compound 0.0003 µM, first compound 9.49 µM) of 1.69%, a viability, T/C (second compound 0.0003 µM, first compound 30 µM) of 0.79% and a viability, T/C (second compound 0.000949 µM, first compound 0.0949 µM) of 0.69%. The viability, T/C (second compound 0.000949 µM, first compound 0.3 µM) was 1.29%, the viability, T/C (second compound 0.000949 µM, first compound 0.949 µM) was 1.05% and the viability, T/C (second compound 0.000949 µM, first compound 3 µM) was 0.61%. It also gave a viability, T/C (second compound 0.000949 µM, first compound 9.49 µM) of 0.73%, a viability, T/C (second compound 0.000949 µM, first compound 30 µM) of 0.72% and a viability, T/C (second compound 0.003 µM, first compound 0.0949 µM) of 0.44%. The viability, T/C (second compound 0.003 µM, first compound 0.3 µM) was 0.28%, the viability, T/C (second compound 0.003 µM, first compound 0.949 µM) was 0.1% and the viability, T/C (second compound 0.003 µM, first compound 3 µM) was 0.21%. The viability, T/C (second compound 0.003 µM, first compound 9.49 µM) was 0.25% and the viability, T/C (second compound 0.003 µM, first compound 30 µM) was 0.2%.
